# Measurements published in PubChem BioAssay AID1033 (Sanford-Burnham Center for Chemical Genomics, 2008).
# The source made the active and inactive calls. The rule behind the calls is not given here.
# Target: Chaperone protein DnaK (Escherichia coli (strain K12)) (UniProt P0A6Y8)
# Assay: binders of DnaK substrate-binding domain, biophysical, NMR, chaperone (AID 1033)
# Details: Purified DnaK SBD, NMR ligand binding
# Sequence of Chaperone protein DnaK (Escherichia coli (strain K12)) (P0A6Y8 whole entry, looked up, the tested form may be a part): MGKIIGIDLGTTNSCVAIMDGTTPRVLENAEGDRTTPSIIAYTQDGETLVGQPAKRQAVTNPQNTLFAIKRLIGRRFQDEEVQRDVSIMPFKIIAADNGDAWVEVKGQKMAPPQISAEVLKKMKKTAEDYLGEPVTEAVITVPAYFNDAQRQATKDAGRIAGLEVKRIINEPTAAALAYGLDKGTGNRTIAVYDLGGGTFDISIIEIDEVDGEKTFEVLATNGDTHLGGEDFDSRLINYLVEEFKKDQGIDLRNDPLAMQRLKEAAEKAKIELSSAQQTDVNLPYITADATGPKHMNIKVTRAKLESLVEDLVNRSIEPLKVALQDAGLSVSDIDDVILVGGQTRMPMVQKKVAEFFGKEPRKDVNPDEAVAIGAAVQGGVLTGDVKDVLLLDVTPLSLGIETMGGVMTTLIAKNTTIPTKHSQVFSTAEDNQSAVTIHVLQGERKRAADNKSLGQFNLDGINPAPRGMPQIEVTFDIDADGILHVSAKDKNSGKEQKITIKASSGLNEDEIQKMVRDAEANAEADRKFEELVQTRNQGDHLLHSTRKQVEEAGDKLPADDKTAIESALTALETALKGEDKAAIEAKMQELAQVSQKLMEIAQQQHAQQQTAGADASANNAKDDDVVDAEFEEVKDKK
row,SMILES,Kd
1,Cc1nnc2ccc(N3CCCC3)nn12,> 4 mM (inactive)
2,COCCOc1nc2ccccc2nc1C,> 4 mM (inactive)
3,CC(=O)Oc1ccc2c(c1)c(C(C)=O)c(C)n2C,> 4 mM (inactive)
4,CC(=O)c1cccc(NC(=O)N2CCc3ccccc3C2)c1,> 4 mM (inactive)
5,CC(=O)c1ccc(NC(=S)N2CCC(O)CC2)cc1,> 4 mM (inactive)
6,CS(=O)(=O)Cc1ccccc1,> 4 mM (inactive)
7,CC1CN=C(Nc2ccccc2)S1 (stereo not given),> 4 mM (inactive)
8,O=C(Nc1ccccc1)NC1CCS(=O)(=O)C1 (stereo not given),> 4 mM (inactive)
9,CC(C)n1c(-c2ccncc2)n[nH]c1=S,> 4 mM (inactive)
10,NCc1ccc(-c2csnn2)cc1,> 4 mM (inactive)
11,NC(=O)CSc1ccc2nnc(-c3ccccc3)n2n1,> 4 mM (inactive)
12,C=C(C)C1CC=C(CO)CC1 (stereo not given),> 4 mM (inactive)
13,O=C(O)c1ccc(NC(=O)c2cccs2)cc1,> 4 mM (inactive)
14,COc1cccc(N2CCNCC2)c1,> 4 mM (inactive)
15,COCc1cc(=O)oc2cc(O)c(Cl)cc12,> 4 mM (inactive)
16,O=C(O)Cn1c(C(F)(F)F)nc2ccccc21,> 4 mM (inactive)
17,O=C(c1cccs1)N1CCCc2ccccc21,> 4 mM (inactive)
18,NC(Cc1c[nH]c2ccccc12)C(=O)O (stereo not given),> 4 mM (inactive)
19,C=C(C)C1Cc2c(ccc(C(=O)O)c2O)O1 (stereo not given),> 4 mM (inactive)
20,S=c1nc2c(n[nH]1)[nH]c1ccccc12,> 4 mM (inactive)
21,CC(=O)NS(=O)(=O)c1ccc(C)cc1,> 4 mM (inactive)
22,O=C1CSC(=O)N1CN1CCCC1,> 4 mM (inactive)

row,SMILES,Kd
1,C=C(C)[C@H]1COc2cc3oc(=O)ccc3cc2O1,> 4 mM (inactive)
2,O=c1c2ccccc2ncn1C1CCCCC1,> 4 mM (inactive)
3,COc1ccc2[nH]cc(CN(C)C)c2c1,> 4 mM (inactive)
4,NC(=O)C(=O)Nc1nc(-c2ccccc2)cs1,> 4 mM (inactive)
5,C=CC(C1=CC(=O)C(OC)=CC1=O)c1ccccc1 (stereo not given),> 4 mM (inactive)
6,CCSc1nc(N)c(NC(=O)c2ccco2)c(=O)[nH]1,> 4 mM (inactive)
7,O=C1NC(=O)C(=Cc2cccs2)C(=O)N1,> 4 mM (inactive)
8,Cc1cc2cc3c(C)cc(=O)oc3c(C)c2o1,> 4 mM (inactive)
9,Cc1ccc(O)c(NC(=O)c2ccco2)c1,> 4 mM (inactive)
10,COCC(=O)Nc1cccc2ccccc12,> 4 mM (inactive)
11,COc1cc(OC)c2c(c1)O[C@H](c1ccc(OC)c(OC)c1)[C@@H](O)C2,> 4 mM (inactive)
12,CC1CCN(C(=O)c2ccc3c(c2)OCCO3)CC1,> 4 mM (inactive)
13,CC(=O)Oc1c2c(c3c(c1CC=C(C)C)O[C@]14C(=C[C@@H]5CC1C(C)(C)OC4(C/C=C(\C)C(=O)O)C5=O)C3=O)OC(C)(CCC=C(C)C)C=C2 (stereo not given in full),> 4 mM (inactive)
14,Cc1noc(C)c1C(=O)N1CCN(c2ncccn2)CC1,> 4 mM (inactive)
15,O=C(NCc1ccccc1)c1ccc[n+]([O-])c1,> 4 mM (inactive)
16,O=C(O)c1cc(F)cc2c1OCOC2,> 4 mM (inactive)
17,OC12C=CC(CC1)CC2,> 4 mM (inactive)
18,c1coc(-c2nc(-c3ccncc3)no2)c1,> 4 mM (inactive)
19,CN1CCN(CC(=O)Nc2ccccc2)CC1,> 4 mM (inactive)
20,NC(=O)Cn1nnc(-c2ccc(C(F)(F)F)cc2)n1,> 4 mM (inactive)
21,C[C@@H]1CC[C@@]23CCC4(C)[C@@](C=CC5[C@@]6(C)CC[C@H](O)C(C)(C)C6CC[C@]54C)(OC2=O)C3[C@H]1C (stereo not given in full),> 4 mM (inactive)
22,Cc1nn2c(-c3ccncc3)nnc2c2ccccc12,> 4 mM (inactive)

row,SMILES,Kd
1,O=C(O)c1cc(O)c2c(c1)[C@@H]([C@H]1c3cc(C(=O)O)cc(O)c3C(=O)c3c(O[C@H]4O[C@H](CO)[C@@H](O)[C@H](O)[C@H]4O)cccc31)c1cccc(O[C@H]3O[C@H](CO)[C@@H](O)[C@H](O)[C@H]3O)c1C2=O,> 4 mM (inactive)
2,NC(=O)C1CCN(C(=O)c2ccco2)CC1,> 4 mM (inactive)
3,Nc1cccc(S(=O)(=O)N2CCCCC2)c1,> 4 mM (inactive)
4,COC(=O)Nc1nc2c(C)cccc2s1,> 4 mM (inactive)
5,CC(C)CCCC(C)[C@H]1CCC2C3CC=C4CC(=O)CC[C@]4(C)C3CC[C@@]21C (stereo not given in full),> 4 mM (inactive)
6,COC(=O)C(O)c1ccccc1 (stereo not given),> 4 mM (inactive)
7,O=C(O)Cn1cnc2ccccc2c1=O,> 4 mM (inactive)
8,CC(=O)c1cc(-c2nc3ccccc3n2C)n(C)c1,> 4 mM (inactive)
9,CC(=O)c1ccc(-n2ccnc2)cc1,> 4 mM (inactive)
10,O=c1ccn(Cc2ccccc2)c(=O)[nH]1,> 4 mM (inactive)
11,O=C(NCc1ccccc1)c1cnsn1,> 4 mM (inactive)
12,CC(=O)c1sc2nc(N)nn2c1C,> 4 mM (inactive)
13,COc1ccc(N=C2NC(=O)CS2)cc1,> 4 mM (inactive)
14,Cc1cc(C)cc(C(=O)N2CCC(C(N)=O)CC2)c1,> 4 mM (inactive)
15,Nc1nc(=S)n2c(n1)oc1ccccc12,> 4 mM (inactive)
16,CCn1cnc(C(=O)NC)c1C(=O)NC,> 4 mM (inactive)
17,CC1=CCc2c(cc3oc(C)cc(=O)c3c2O)OC1,> 4 mM (inactive)
18,O=C(NC1=NCCS1)c1cccc(F)c1,> 4 mM (inactive)
19,NC(=O)c1cccc2c(=O)oc3ccccc3c12,> 4 mM (inactive)
20,Cc1cc(C)n(/N=C\c2cccs2)c(=O)c1C(N)=O,> 4 mM (inactive)
21,O=C1C2C3C=CC(C3)C2C(=O)N1c1nccs1 (stereo not given),> 4 mM (inactive)
22,CN(C)C(=S)Nc1nc2ccccc2s1,> 4 mM (inactive)

row,SMILES,Kd
1,CN1CCN(C(=O)C2CCCNC2)CC1 (stereo not given),> 4 mM (inactive)
2,CCOc1ccccc1C(=O)NC1=NCCS1,> 4 mM (inactive)
3,Cc1nc(-c2ccccc2)ncc1C(=O)O,> 4 mM (inactive)
4,O=C(NC1=NCCS1)c1ccc2snnc2c1,> 4 mM (inactive)
5,Cc1ccccc1NS(=O)(=O)c1ccc(F)cc1,0.2 mM
6,NC(=O)C1CCN(C(=O)c2ccccc2)CC1,> 4 mM (inactive)
7,Nc1ccc(CCC(=O)O)cc1,> 4 mM (inactive)
8,COc1cc(O)c2c(=O)cc(-c3ccc(OC)c(-c4c(O)cc(O)c5c(=O)cc(-c6ccc(O)cc6)oc45)c3)oc2c1,> 4 mM (inactive)
9,COC(=O)N1CCN(c2ccc(OC)cc2)CC1,> 4 mM (inactive)
10,O=C(NCc1ccc2c(c1)OCO2)c1cccs1,> 4 mM (inactive)
11,CC1(C)CC[C@]2(C(=O)O)CC[C@]3(C)C(=CCC4[C@@]5(C)CC[C@@H](O)C(C)(C)C5CC[C@]43C)C2C1 (stereo not given in full),> 4 mM (inactive)
12,O=S(=O)(CCN1CCCC1)c1ccccc1,> 4 mM (inactive)
13,O=C1C2CC=CCC2C(=O)N1c1cccc(O)c1 (stereo not given),> 4 mM (inactive)
14,O=c1cc(O)n(-c2ccc(F)cc2)c(=S)[nH]1,> 4 mM (inactive)
15,OCc1nccn1Cc1ccccc1,> 4 mM (inactive)
16,c1nnc2c3c4c(sc3ncn12)CCCC4,> 4 mM (inactive)
17,N=C1/C(=C\c2ccccc2)C(=O)N=C2SC=NN12,> 4 mM (inactive)
18,CN(C)C(=O)Oc1cccc(-c2nnco2)c1,> 4 mM (inactive)
19,CC(=O)c1c(C)nc(C)nc1NC(=O)C(C)C,> 4 mM (inactive)
